{"source": "paper PMC2784992", "about": "(Nature chemical biology, 2009)", "system": "Plasmodium falciparum lines, progeny, field isolates and transfected parasites", "conditions": "0.8 µM verapamil with DHMS", "data": [{"smiles": "COc1ccc(CCN(C)CCCC(C#N)(c2ccc(OC)c(OC)c2)C(C)C)cc1OC", "note": "(stereo not shown) [verapamil]", "values": [{"measurement": "effect on parasite response to 1", "result": "did not have any effect"}]}]}
